Data taken from PubChem BioAssay (NCI).
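Each compound was tested at five concentrations against cells in 96-well plates for 48 hours. GI50 = concentration required for 50% inhibition of growth. TGI marks complete inhibition of growth.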

Tests used:
Test in all cases: NCI-60 cell line screen, 48 h
MDA-N = tested on: MDA-N
NCI-H522 lung = tested on: NCI-H522 lung
NCI-H23 lung = tested on: NCI-H23 lung
HS 578T breast = tested on: HS 578T breast

Compound	GI50 (MDA-N)	TGI (MDA-N)	GI50 (NCI-H522 lung)	TGI (NCI-H522 lung)	GI50 (NCI-H23 lung)	TGI (NCI-H23 lung)	GI50 (HS 578T breast)	TGI (HS 578T breast)
COc1cc2cc(C(=O)N3C[C@H](CCl)c4c3cc(N)c3ccccc43)[nH]c2c(OC)c1OC	< 0.001 µM	9.03 µM	< 0.005 µM	< 0.005 µM	–	–	–	–
COc1cc(S(=O)(=O)Nc2ccc(C(=O)/C=C/c3ccc(O)cc3)cc2)ccc1F	–	–	–	–	> 100 µM	> 100 µM	> 100 µM	> 100 µM
